We go through 2 molecules from ChEMBL document CHEMBL2331128, “Nebulosides A-B, novel triterpene saponins from under-ground parts of Gypsophila arrostii Guss. var. nebulosa” (Bioorg Med Chem, 2013).

Activity calls are given as the source filed them. The rule behind the calls is not given here.

The test system of data set [1] is ECV-304. Description: Cytotoxicity against human ECV304 cells at 15 ug/ml after 72 hrs by XTT reduction assay. It counts as cell-based. To be noted: ecv-304, 72 h.
Data set [2] has as its system ECV-304. Nature of the data set: Induction of type I ribosome-inactivating protein-mediated cytotoxicity of human ECV304 cells measured at 15 ug/ml after 72 hrs by XTT reduction assay. The class given is functional, cell-based. In general terms: Tetrazolium dyes change colour on reduction, which living cells bring about.

Regarding `C[C@@H]1O[C@@H](O[C@H]2[C@H](OC(=O)[C@]34CCC(C)(C)C[C@H]3C3=CC[C@@H]5[C@@]6(C)CC[C@H](O[C@@H]7O[C@H](C(=O)O)[C@@H](O)[C@H](O[C@@H]8OC[C@@H](O)[C@H](O)[C@H]8O)[C@H]7O[C@@H]7O[C@H](CO)[C@H](O)[C@H](O)[C@H]7O)[C@@](C)(C=O)[C@@H]6CC[C@@]5(C)[C@]3(C)C[C@H]4O)O[C@H](C)[C@@H](O)[C@@H]2O)[C@H](O)[C@H](O[C@@H]2O[C@H](CO)[C@@H](O)[C@H](O)[C@H]2O)[C@H]1O[C@@H]1OC[C@@H](O)[C@H](O[C@@H]2OC[C@@H](O)[C@H](O)[C@H]2O)[C@H]1O`, in data set [1], the Activity result was “Non-toxic”. The outcome in data set [2] was Active.

Take `C[C@@H]1O[C@@H](O[C@H]2[C@H](OC(=O)[C@]34CCC(C)(C)C[C@H]3C3=CC[C@@H]5[C@@]6(C)CC[C@H](O[C@@H]7O[C@H](C(=O)O)[C@@H](O)[C@H](O[C@@H]8OC[C@@H](O)[C@H](O)[C@H]8O)[C@H]7O[C@@H]7O[C@H](CO)[C@H](O)[C@H](O)[C@H]7O[C@@H]7O[C@H](CO)[C@H](O)[C@H](O)[C@H]7O)[C@@](C)(C=O)[C@@H]6CC[C@@]5(C)[C@]3(C)CC4)O[C@H](C)[C@@H](O)[C@@H]2O)[C@H](O)[C@H](O[C@@H]2O[C@H](CO)[C@@H](O)[C@H](O)[C@H]2O)[C@H]1O[C@@H]1OC[C@@H](O)[C@H](O[C@@H]2OC[C@@H](O)[C@H](O)[C@H]2O)[C@H]1O`: in data set [1], the Activity result is “Non-toxic”. In data set [2], the outcome was Active.
